{"source": "patent US11807644B2", "about": "(PMV Pharmaceuticals, Inc., priority 2020, dated 2023)", "data": [{"molecular_target": "T1, recombinant His-tag Y220C p53 DBD protein (Homo sapiens, UniProt P04637, Y220C)", "T1 construct": "recombinant His-tag Y220C p53 DBD protein (amino acids #˜94-312)", "assay": "In vitro DNA binding activity assay (TR-FRET): binding of His-tag Y220C p53 DBD to biotin-labeled consensus DNA", "type": "biochemical", "conditions": "SC150 = concentration to increase DNA binding by […], His-tag Y220C p53 DBD, biotin-labeled consensus DNA", "values": [{"smiles": "CN1CC[C@@H](Nc2cccc3c2cc(-c2noc(CNC(=O)c4csc(N(C)C)n4)n2)n3CC(F)(F)F)[C@@H](F)C1", "note": "[Compound 435B, 2-(dimethylamino)-N-{[3-(4-{[(3S,4R)-3-fluoro-1-methylpiperidin-4-yl]amino}-1-(2,2,2-trifluoroethyl)-1H-indol-2-yl)-1,2,4-oxadiazol-5-yl]methyl}-1,3-thiazole-4-carboxamide]", "Y220C SC150 (μM)": "* (* = 0 μM ≤ SC150 < 0.1 μM)"}, {"smiles": "CN1CC[C@H](F)[C@H](Nc2cccc3c2cc(-c2noc(CNC(=O)c4cnn(C(C)(C)C)c4)n2)n3CC(F)(F)F)C1", "note": "[Compound 408B, 1-tert-butyl-N-{[3-(4-{[(3R,4S)-4-fluoro-1-methylpiperidin-3-yl]amino}-1-(2,2,2-trifluoroethyl)-1H-indol-2-yl)-1,2,4-oxadiazol-5-yl]methyl}-1H-pyrazole-4-carboxamide]", "Y220C SC150 (μM)": "* (* = 0 μM ≤ SC150 < 0.1 μM)"}, {"smiles": "O=C(NCc1nc(-c2cc3c(NCc4ccccc4)cccc3n2CC(F)(F)F)no1)C1CC1", "note": "[Compound 160B, N-({3-[4-(benzylamino)-1-(2,2,2-trifluoroethyl)-1H-indol-2-yl]-1,2,4-oxadiazol-5-yl}methyl)cyclopropanecarboxamide]", "Y220C SC150 (μM)": "** (** = 0.1 μM ≤ SC150 < 0.5 μM)"}, {"smiles": "CN1CC[C@@H](Nc2cccc3c2cc(-c2noc(CNC(=O)c4cnn(C5(C)CC5)c4)n2)n3CC(F)(F)F)[C@@H](F)C1", "note": "[Compound 448B, N-{[3-(4-{[(3S,4R)-3-fluoro-1-methylpiperidin-4-yl]amino}-1-(2,2,2-trifluoroethyl)-1H-indol-2-yl)-1,2,4-oxadiazol-5-yl]methyl}-1-(1-methylcyclopropyl)-1H-pyrazole-4-carboxamide]", "Y220C SC150 (μM)": "* (* = 0 μM ≤ SC150 < 0.1 μM)"}, {"smiles": "COCCN1CC[C@@H](Nc2cccc3c2cc(-c2noc(CNC(=O)c4cnn(C(C)(C)C)c4)n2)n3CC(F)(F)F)[C@@H](F)C1", "note": "[Compound 338B, 1-tert-butyl-N-{[3-(4-{[(3S,4R)-3-fluoro-1-(2-methoxyethyl)piperidin-4-yl]amino}-1-(2,2,2-trifluoroethyl)-1H-indol-2-yl)-1,2,4-oxadiazol-5-yl]methyl}-1H-pyrazole-4-carboxamide]", "Y220C SC150 (μM)": "* (* = 0 μM ≤ SC150 < 0.1 μM)"}, {"smiles": "CN1CCC(Nc2cccc3c2cc(-c2nnc(CNC(=O)C4CC4c4cccs4)s2)n3CC(F)(F)F)CC1", "note": "(centres unmarked) [Compound 79B, N-[(5-{4-[(1-methylpiperidin-4-yl)amino]-1-(2,2,2-trifluoroethyl)-1H-indol-2-yl}-1,3,4-thiadiazol-2-yl)methyl]-2-(thiophen-2-yl)cyclopropane-1-carboxamide]", "Y220C SC150 (μM)": "* (* = 0 μM ≤ SC150 < 0.1 μM)"}, {"smiles": "CC(C)(C)n1cc(C(=O)NCc2nc(-c3cc4c(N[C@H]5CCOC[C@H]5F)cccc4n3CC(F)(F)F)no2)cn1", "note": "[Compound 498B, 1-tert-butyl-N-{[3-(4-{[(3S,4S)-3-fluorooxan-4-yl]amino}-1-(2,2,2-trifluoroethyl)-1H-indol-2-yl)-1,2,4-oxadiazol-5-yl]methyl}-1H-pyrazole-4-carboxamide]", "Y220C SC150 (μM)": "* (* = 0 μM ≤ SC150 < 0.1 μM)"}, {"smiles": "CN1CC[C@H](Nc2cccc3c2cc(-c2ccc(CNC(=O)c4ccccc4)s2)n3CC(F)(F)F)[C@H](F)C1", "note": "(racemic) [Compound 102B, (+/−)-N-{[5-(4-{[(3R,4S)-3-fluoro-1-methylpiperidin-4-yl]amino}-1-(2,2,2-trifluoroethyl)-1H-indol-2-yl)thiophen-2-yl]methyl}benzamide]", "Y220C SC150 (μM)": "** (** = 0.1 μM ≤ SC150 < 0.5 μM)"}, {"smiles": "CO[C@H]1CCN(c2nc(C(=O)NCc3nc(-c4cc5c(N[C@@H]6CCN(C)C[C@@H]6F)cccc5n4CC(F)(F)F)no3)cs2)C1", "note": "[Compound 523B, N-{[3-(4-{[(3S,4R)-3-fluoro-1-methylpiperidin-4-yl]amino}-1-(2,2,2-trifluoroethyl)-1H-indol-2-yl)-1,2,4-oxadiazol-5-yl]methyl}-2-[(3S)-3-methoxypyrrolidin-1-yl]-1,3-thiazole-4-carboxamide]", "Y220C SC150 (μM)": "* (* = 0 μM ≤ SC150 < 0.1 μM)"}, {"smiles": "CC(CO)n1ccc(C(=O)NCc2nc(-c3cc4c(N[C@@H]5CCN(C)C[C@@H]5F)cccc4n3CC(F)(F)F)no2)c1", "note": "(stereo partly drawn) [Compound 237B, N-{[3-(4-{[(3S,4R)-3-fluoro-1-methylpiperidin-4-yl]amino}-1-(2,2,2-trifluoroethyl)-1H-indol-2-yl)-1,2,4-oxadiazol-5-yl]methyl}-1-(1-hydroxypropan-2-yl)-1H-pyrrole-3-carboxamide]", "Y220C SC150 (μM)": "* (* = 0 μM ≤ SC150 < 0.1 μM)"}, {"smiles": "CN1CC[C@@H](Nc2cccc3c2cc(-c2noc(CNC(=O)c4csc(N)c4)n2)n3CC(F)(F)F)[C@@H](F)C1", "note": "[Compound 429B, 5-amino-N-{[3-(4-{[(3S,4R)-3-fluoro-1-methylpiperidin-4-yl]amino}-1-(2,2,2-trifluoroethyl)-1H-indol-2-yl)-1,2,4-oxadiazol-5-yl]methyl}thiophene-3-carboxamide]", "Y220C SC150 (μM)": "* (* = 0 μM ≤ SC150 < 0.1 μM)"}, {"smiles": "COc1cccc(C(=O)NCc2nnc(-c3cc4c(N[C@H]5CCN(C)C[C@H]5F)cccc4n3CC(F)(F)F)o2)c1", "note": "(racemic) [Compound 119B, (+/−)-N-{[5-(4-{[(3R,4S)-3-fluoro-1-methylpiperidin-4-yl]amino}-1-(2,2,2-trifluoroethyl)-1H-indol-2-yl)-1,3,4-oxadiazol-2-yl]methyl}-3-methoxybenzamide]", "Y220C SC150 (μM)": "** (** = 0.1 μM ≤ SC150 < 0.5 μM)"}, {"smiles": "CN1CC[C@@H](Nc2cccc3c2cc(-c2noc(CNC(=O)c4cnc(C(C)(C)C)s4)n2)n3CC(F)(F)F)[C@@H](F)C1", "note": "[Compound 437B, 2-tert-butyl-N-{[3-(4-{[(3S,4R)-3-fluoro-1-methylpiperidin-4-yl]amino}-1-(2,2,2-trifluoroethyl)-1H-indol-2-yl)-1,2,4-oxadiazol-5-yl]methyl}-1,3-thiazole-5-carboxamide]", "Y220C SC150 (μM)": "* (* = 0 μM ≤ SC150 < 0.1 μM)"}, {"smiles": "CN1CC[C@@H](Nc2cccc3c2cc(-c2noc(CNc4cn[nH]c4)n2)n3CC(F)(F)F)[C@@H](F)C1", "note": "[Compound 227B, N-[(3S,4R)-3-fluoro-1-methylpiperidin-4-yl]-2-(5-{[(1H-pyrazol-4-yl)amino]methyl}-1,2,4-oxadiazol-3-yl)-1-(2,2,2-trifluoroethyl)-1H-indol-4-amine]", "Y220C SC150 (μM)": "* (* = 0 μM ≤ SC150 < 0.1 μM)"}, {"smiles": "CN1CC[C@@H](Nc2cccc3c2cc(-c2noc(CNC(=O)c4cccc(N(C)C)c4)n2)n3CC(F)(F)F)[C@@H](F)C1", "note": "[Compound 242B, 3-(dimethylamino)-N-{[3-(4-{[(3S,4R)-3-fluoro-1-methylpiperidin-4-yl]amino}-1-(2,2,2-trifluoroethyl)-1H-indol-2-yl)-1,2,4-oxadiazol-5-yl]methyl}benzamide]", "Y220C SC150 (μM)": "* (* = 0 μM ≤ SC150 < 0.1 μM)"}, {"smiles": "CN1CC[C@@H](Nc2cccc3c2cc(-c2noc(CNC(=O)c4cn(CC(F)F)cn4)n2)n3CC(F)(F)F)[C@@H](F)C1", "note": "[Compound 310B, 1-(2,2-difluoroethyl)-N-{[3-(4-{[(3S,4R)-3-fluoro-1-methylpiperidin-4-yl]amino}-1-(2,2,2-trifluoroethyl)-1H-indol-2-yl)-1,2,4-oxadiazol-5-yl]methyl}-1H-imidazole-4-carboxamide]", "Y220C SC150 (μM)": "* (* = 0 μM ≤ SC150 < 0.1 μM)"}, {"smiles": "CN1CC[C@@H](Nc2cccc3c2cc(-c2nnc(CNC(=O)OCc4ccccc4)s2)n3CC(F)(F)F)[C@@H](F)C1", "note": "(racemic) [Compound 44B, (+/−)-benzyl N-{[5-(4-{[(3R,4S)-3-fluoro-1-methylpiperidin-4-yl]amino}-1-(2,2,2-trifluoroethyl)-1H-indol-2-yl)-1,3,4-thiadiazol-2-yl]methyl}carbamate]", "Y220C SC150 (μM)": "* (* = 0 μM ≤ SC150 < 0.1 μM)"}, {"smiles": "CN1CCC(Nc2cccc3c2cc(-c2nc(CNc4ccc(S(C)(=O)=O)cc4)no2)n3CC(F)(F)F)CC1", "note": "[Compound 136B, N-(1-methylpiperidin-4-yl)-2-(3-(((4-(methylsulfonyl)phenyl)amino)methyl)-1,2,4-oxadiazol-5-yl)-1-(2,2,2-trifluoroethyl)-1H-indol-4-amine]", "Y220C SC150 (μM)": "* (* = 0 μM ≤ SC150 < 0.1 μM)"}, {"smiles": "Cc1cc(C(=O)NCc2nc(-c3cc4c(N[C@@H]5CCN(C)C[C@@H]5F)cccc4n3CC(F)(F)F)no2)cs1", "note": "[Compound 208B, N-{[3-(4-{[(3S,4R)-3-fluoro-1-methylpiperidin-4-yl]amino}-1-(2,2,2-trifluoroethyl)-1H-indol-2-yl)-1,2,4-oxadiazol-5-yl]methyl}-5-methylthiophene-3-carboxamide]", "Y220C SC150 (μM)": "* (* = 0 μM ≤ SC150 < 0.1 μM)"}, {"smiles": "CN1CC[C@@H](Nc2cccc3c2cc(-c2noc(CNC(=O)[C@@H]4C[C@H]4c4ccccc4F)n2)n3CC(F)(F)F)[C@@H](F)C1", "note": "[Compound 224B, (1R,2R)-N-{[3-(4-{[(3S,4R)-3-fluoro-1-methylpiperidin-4-yl]amino}-1-(2,2,2-trifluoroethyl)-1H-indol-2-yl)-1,2,4-oxadiazol-5-yl]methyl}-2-(2-fluorophenyl)cyclopropane-1-carboxamide]", "Y220C SC150 (μM)": "* (* = 0 μM ≤ SC150 < 0.1 μM)"}, {"smiles": "O=C(NCc1nc(-c2cc3c(NC4CCS(=O)(=O)CC4)cccc3n2CC(F)(F)F)no1)C1CC1", "note": "[Compound 162B, N-[(3-{4-[(1,1-dioxo-1λ^6-thian-4-yl)amino]-1-(2,2,2-trifluoroethyl)-1H-indol-2-yl}-1,2,4-oxadiazol-5-yl)methyl]cyclopropanecarboxamide]", "Y220C SC150 (μM)": "* (* = 0 μM ≤ SC150 < 0.1 μM)"}, {"smiles": "CN1CC[C@@H](Nc2cccc3c2cc(-c2noc(CNC(=O)c4cnn(C5CCC(F)C5)c4)n2)n3CC(F)(F)F)[C@@H](F)C1", "note": "(stereo partly drawn) [Compound 339B, N-{[3-(4-{[(3S,4R)-3-fluoro-1-methylpiperidin-4-yl]amino}-1-(2,2,2-trifluoroethyl)-1H-indol-2-yl)-1,2,4-oxadiazol-5-yl]methyl}-1-(3-fluorocyclopentyl)-1H-pyrazole-4-carboxamide]", "Y220C SC150 (μM)": "* (* = 0 μM ≤ SC150 < 0.1 μM)"}]}, {"molecular_target": "T1, recombinant His-tag Y220C p53 DBD protein", "assay": "In vitro DNA binding activity assay (TR-FRET): binding of His-tag Y220C p53 DBD to biotin-labeled consensus DNA", "type": "biochemical", "conditions": "concentration to increase DNA binding by […], incubated at either 27° C. or 29° C. for 60 min", "values": [{"smiles": "CN1CC[C@H](Nc2cccc3c2cc(-c2ccc(CNC(=O)c4ccccc4)cc2)n3CC(F)(F)F)[C@H](F)C1", "note": "(racemic) [Compound 45A, (+/−)-N-{[4-(4-{[(3R,4S)-3-fluoro-1-methylpiperidin-4-yl]amino}-1-(2,2,2-trifluoroethyl)-1H-indol-2-yl)phenyl]methyl}benzamide]", "SC150 (μM)": "+ (+ = 0 μM ≤ SC150 < 2 μM)"}]}]}
